Tests used:
[1] = test system: MYCN-amplified NB cells (IMR-32, ATCC CCL-127); assay: Antiproliferative effect of co-drug loaded nanoparticles on neuroblastoma cells; type: cell-based; conditions: IMR-32 cells, doses equivalent to 5-20 ng SN-22 per well, 96-well plates
Method: Blank NP were used as a negative control, and unmodified SN-22, diluted in cell culture medium from a DMSO stock, was used as a positive control.
Cell growth curves of NB cells treated with co-drug loaded nanoparticles at doses corresponding to 5 ng SN-22 per well (96-well plates) for 24 hours are shown in comparison to “no treatment”, drug-free nanoparticles and free SN-22 (upper panel). Cell growth inhibition (%) determined 6 days post-treatment is shown for co-drug loaded and drug-free (control) nanoparticles as a function of dose and exposure duration (lower panel).

[2] = Acid strength (pKa) of the ester-forming acid of model compounds; type: physicochemical; conditions: pKa of the acid forming the ester bond
Source text: Table 1 illustrates the effect of acid strength on rate of hydrolytic cleavage for several model compounds.

[3] = Release studies of co-drug loaded nanoparticles, external sink method; type: physicochemical; conditions: sink conditions, 37° C., acceptor medium heptane/methyl tert-butyl ether 1:1 v/v
Method: Release samples were also analyzed by TLC (right panel). […] (lane 3 vs. 2). Free SN-22 is included in lane 1.

## CCc1c2c(nc3ccccc13)-c1cc3c(c(=O)n1C2)COC(=O)[C@]3(O)CC [SN-22, 7-ethylcamptothecin]
[1]
  Cell growth / proliferation inhibition: fully inhibited cell growth

## CCOC(=O)COC [CH3OCH2COOEt]
[2]
  Acid pKa: 3.6

## CCOC(=O)COC(C)=O [CH3COOCH2COOEt]
[2]
  Acid pKa: 2.7

## SN-22 ester of tocopheryl oxyacetic acid [SN22-TOAc]
[3]
  Release rate from nanoparticles: more stable retention

## CCOC(C)=O [CH3COOEt]
[2]
  Acid pKa: 4.7

## CCOC(=O)C(=O)NC [CH3NHCOCOEt]
[2]
  Acid pKa: 1.8
